Reference: ChEMBL document CHEMBL6153084, “The development of α, β-unsaturated lactam-based andrographolide derivatives as anti-gastric cancer agents with the ability of inhibiting the ERK/c-Fos/Jun pathway” (Eur J Med Chem, 2025)

System: MGC-803
Test: Antiproliferative activity against human MGC-803 cells assessed as inhibition of cell growth incubated for 24 to 72 hrs by MTT assay
Format: functional, cell-based

Structure (SMILES)	IC50 [µM]
C=C1CC[C@@H]2[C@](C)(CO)[C@H](O)CC[C@@]2(C)[C@@H]1/C=C/C1=CC(=C2CCCCC2)NC1=O	> 50
C=C1CC[C@@H]2[C@](C)(CO)[C@H](O)CC[C@@]2(C)[C@@H]1/C=C/C1=CC(=C/c2cccc(C)c2C)/NC1=O	14.1
C=C1CC[C@@H]2[C@](C)(CO)[C@H](O)CC[C@@]2(C)[C@@H]1/C=C/C1=CC(=C/c2ccccc2C)/NC1=O	1.76
C=C1CC[C@@H]2[C@](C)(CO)[C@H](O)CC[C@@]2(C)[C@@H]1/C=C/C(=C/C(=O)Cc1ccc(Cl)cc1)C(=O)N1CCN(C(=O)OC(C)(C)C)CC1	15.8
C=C1CC[C@@H]2[C@](C)(CO)[C@H](O)CC[C@@]2(C)[C@@H]1/C=C/C(=C/C(=O)Cc1ccc(Cl)cc1)C(=O)N(C)C	> 50
C=C1CC[C@@H]2[C@](C)(CO)[C@H](O)CC[C@@]2(C)[C@@H]1/C=C/C(=C/C(=O)Cc1ccc(Cl)cc1)C(=O)N1CCNCC1	37.8
C=C1CC[C@@H]2[C@](C)(CO)[C@H](O)CC[C@@]2(C)[C@@H]1/C=C/C(=C/C(=O)Cc1ccc(Cl)cc1)C(=O)N1CCCC1	> 50
C=C1CC[C@@H]2[C@](C)(CO)[C@H](O)CC[C@@]2(C)[C@@H]1/C=C/C(=C/C(=O)Cc1ccc(Cl)cc1)C(=O)N1CCCCC1	> 50
C=C1CC[C@@H]2[C@](C)(CO)[C@H](O)CC[C@@]2(C)[C@@H]1/C=C/C(=C/C(=O)Cc1ccc(Cl)cc1)C(=O)N1CCN(CC)CC1	> 50
C=C1CC[C@@H]2[C@](C)(CO)[C@H](O)CC[C@@]2(C)[C@@H]1/C=C/C(=C/C(=O)Cc1ccc(Cl)cc1)C(=O)N1CCN(C)CC1	> 50
C=C1CC[C@@H]2[C@](C)(CO)[C@H](O)CC[C@@]2(C)[C@@H]1C/C=C1/C(=O)OC[C@H]1O [ANDROGRAPHOLIDE]	31.8
C=C1CC[C@@H]2[C@](C)(CO)[C@H](O)CC[C@@]2(C)[C@@H]1/C=C/C1=CC(=C/c2cccc3ccccc23)/NC1=O	1.34
C=C1CC[C@@H]2[C@](C)(CO)[C@H](O)CC[C@@]2(C)[C@@H]1/C=C/C1=CC(=C/c2ccc(C(C)(C)C)cc2)/NC1=O	19.5
C=C1CC[C@@H]2[C@](C)(CO)[C@H](O)CC[C@@]2(C)[C@@H]1/C=C/C1=CC(=C/c2ccccc2Cl)/NC1=O	1.6
C=C1CC[C@@H]2[C@](C)(CO)[C@H](O)CC[C@@]2(C)[C@@H]1/C=C/C1=CC(=C/c2cc(OC)c(OC)c(OC)c2)/NC1=O	7.27
C=C1CC[C@@H]2[C@](C)(CO)[C@H](O)CC[C@@]2(C)[C@@H]1/C=C/C1=CC(=C/C2CCCCC2)/NC1=O	15.7
C=C1CC[C@@H]2[C@](C)(CO)[C@H](O)CC[C@@]2(C)[C@@H]1/C=C/C1=CC(=C(C)C)NC1=O	> 50
C=C1CC[C@@H]2[C@](C)(CO)[C@H](O)CC[C@@]2(C)[C@@H]1/C=C/C(=C/C(=O)Cc1ccc(Cl)cc1)C(=O)N1CCOCC1	> 50
C=C1CC[C@@H]2[C@](C)(CO)[C@H](O)CC[C@@]2(C)[C@@H]1/C=C/C(=C/C(=O)Cc1ccc(Cl)cc1)C(=O)N1CCN(CCO)CC1	> 50

Continued, values first:

IC50 [µM]	Structure (SMILES)
17.6	C=C1CC[C@@H]2[C@](C)(CO)[C@H](O)CC[C@@]2(C)[C@@H]1/C=C/C1=CC(=C\c2ccccc2)/NC1=O
> 50	C=C1CC[C@@H]2[C@](C)(CO)[C@H](O)CC[C@@]2(C)[C@@H]1/C=C/C1=CC(=C/c2ccc(F)cc2)/NC1=O
9.56	C=C1CC[C@@H]2[C@](C)(CO)[C@H](O)CC[C@@]2(C)[C@@H]1/C=C/C1=CC(=C/c2ccccc2)/NC1=O
19.2	C=C1CC[C@@H]2[C@](C)(CO)[C@H](O)CC[C@@]2(C)[C@@H]1/C=C/C1=CC(=C\c2ccc(Cl)cc2)/NC1=O
12.3	C=C1CC[C@@H]2[C@](C)(CO)[C@H](O)CC[C@@]2(C)[C@@H]1/C=C/C1=CC(=C/c2cccnc2)/NC1=O
5.3	C=C1CC[C@@H]2[C@](C)(CO)[C@H](O)CC[C@@]2(C)[C@@H]1/C=C/C1=CC(=C/c2ccc(Br)cc2)/NC1=O
> 50	C=C1CC[C@@H]2[C@](C)(CO)[C@H](O)CC[C@@]2(C)[C@@H]1/C=C/C1=CC(=C/c2ccc(F)c(F)c2)/NC1=O
> 50	C=C1CC[C@@H]2[C@](C)(CO)[C@H](O)CC[C@@]2(C)[C@@H]1/C=C/C1=CC(=C/c2ccc([N+](=O)[O-])c(Cl)c2)/NC1=O
> 50	C=C1CC[C@@H]2[C@](C)(CO)[C@H](O)CC[C@@]2(C)[C@@H]1/C=C/C1=CC(=C/c2cccc(Cl)c2)/NC1=O
6.05	C=C1CC[C@@H]2[C@](C)(CO)[C@H](O)CC[C@@]2(C)[C@@H]1/C=C/C1=CC(=C/c2ccc(Cl)cc2)/NC1=O
2.43	C=C1CC[C@@H]2[C@](C)(CO)[C@H](O)CC[C@@]2(C)[C@@H]1/C=C/C1=CC(=C/c2ccc3ccccc3c2)/NC1=O
8.52	C=C1CC[C@@H]2[C@](C)(CO)[C@H](O)CC[C@@]2(C)[C@@H]1/C=C/C1=CC(=C/c2ccc(Cl)cc2Cl)/NC1=O
4.56	C=C1CC[C@@H]2[C@](C)(CO)[C@H](O)CC[C@@]2(C)[C@@H]1/C=C/C1=CC(=C/c2cccc(C)c2)/NC1=O
18.1	C=C1CC[C@@H]2[C@](C)(CO)[C@H](O)CC[C@@]2(C)[C@@H]1/C=C/C1=CC(=C/c2ccc(N(C)C)cc2)/NC1=O
14.7	C=C1CC[C@@H]2[C@](C)(CO)[C@H](O)CC[C@@]2(C)[C@@H]1/C=C/C1=CC(=C\c2ccc(C)cc2)/NC1=O
